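1) Cells in 96-well plates. 2) Compound, 48 h, 5 concentrations. 3) Linear interpolation between surrounding doses. 4) Unreached endpoint = highest concentration. TGI: total growth inhibition.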
Experiments:
Experiment in all cases: NCI tumour cell line growth inhibition, 48 h
786-0 renal = tested on: 786-0 renal
A498 renal = tested on: A498 renal
A549 NSCLC = tested on: A549 NSCLC
ACHN renal = tested on: ACHN renal
BT-549 breast = tested on: BT-549 breast
CAKI-1 renal = tested on: CAKI-1 renal
CCRF-CEM leukemia = tested on: CCRF-CEM leukemia
COLO 205 colon = tested on: COLO 205 colon
DU-145 prostate = tested on: DU-145 prostate
EKVX NSCLC = tested on: EKVX NSCLC
HCC-2998 colon = tested on: HCC-2998 colon
HCT-116 colon = tested on: HCT-116 colon
HCT-15 colon = tested on: HCT-15 colon
HL-60(TB) leukemia = tested on: HL-60(TB) leukemia
HOP-62 NSCLC = tested on: HOP-62 NSCLC
HOP-92 NSCLC = tested on: HOP-92 NSCLC
HS 578T breast = tested on: HS 578T breast
HT29 colon = tested on: HT29 colon
K-562 leukemia = tested on: K-562 leukemia
KM12 colon = tested on: KM12 colon
LOX IMVI melanoma = tested on: LOX IMVI melanoma
M14 melanoma = tested on: M14 melanoma
MALME-3M melanoma = tested on: MALME-3M melanoma
MCF7 breast = tested on: MCF7 breast
MDA-MB-231 breast = tested on: MDA-MB-231 breast
MDA-MB-435 = tested on: MDA-MB-435
MDA-N = tested on: MDA-N
MOLT-4 leukemia = tested on: MOLT-4 leukemia
NCI-H226 lung = tested on: NCI-H226 lung
NCI-H23 lung = tested on: NCI-H23 lung
NCI-H460 lung = tested on: NCI-H460 lung
NCI/ADR-RES ovarian = tested on: NCI/ADR-RES ovarian
OVCAR-3 ovarian = tested on: OVCAR-3 ovarian
OVCAR-4 ovarian = tested on: OVCAR-4 ovarian
OVCAR-5 ovarian = tested on: OVCAR-5 ovarian
OVCAR-8 ovarian = tested on: OVCAR-8 ovarian
PC-3 prostate = tested on: PC-3 prostate
RPMI-8226 leukemia = tested on: RPMI-8226 leukemia
RXF 393 renal = tested on: RXF 393 renal
SF-268 CNS = tested on: SF-268 CNS
SF-295 CNS = tested on: SF-295 CNS
SF-539 CNS = tested on: SF-539 CNS
SK-MEL-2 melanoma = tested on: SK-MEL-2 melanoma
SK-MEL-28 melanoma = tested on: SK-MEL-28 melanoma
SK-MEL-5 melanoma = tested on: SK-MEL-5 melanoma
SK-OV-3 ovarian = tested on: SK-OV-3 ovarian
SN12C renal = tested on: SN12C renal
SNB-19 CNS = tested on: SNB-19 CNS
SNB-75 CNS = tested on: SNB-75 CNS
SW-620 colon = tested on: SW-620 colon
TK-10 renal = tested on: TK-10 renal
U251 CNS = tested on: U251 CNS
UACC-257 melanoma = tested on: UACC-257 melanoma
UACC-62 melanoma = tested on: UACC-62 melanoma
UO-31 renal = tested on: UO-31 renal
IGROV1 ovarian = tested on: IGROV1 ovarian
NCI-H522 lung = tested on: NCI-H522 lung
SR leukemia = tested on: SR leukemia
T-47D breast = tested on: T-47D breast

With CC(C)(C)c1c(C(C)(C)C)c(=O)c1=O the TGI (786-0 renal) was greater than 100 µM, the TGI (A498 renal) was greater than 100 µM and the TGI (A549 NSCLC) was greater than 100 µM. For the same compound, the TGI (ACHN renal) was greater than 100 µM, the TGI (BT-549 breast) was greater than 100 µM and the TGI (CAKI-1 renal) was greater than 100 µM. The TGI (CCRF-CEM leukemia) was greater than 100 µM, the TGI (COLO 205 colon) was greater than 100 µM and the TGI (DU-145 prostate) was greater than 100 µM. It also gave a TGI (EKVX NSCLC) greater than 100 µM, a TGI (HCC-2998 colon) greater than 100 µM and a TGI (HCT-116 colon) greater than 100 µM. It also gave a TGI (HCT-15 colon) greater than 100 µM, a TGI (HL-60(TB) leukemia) greater than 100 µM and a TGI (HOP-62 NSCLC) greater than 100 µM. For the same compound, the TGI (HOP-92 NSCLC) was greater than 100 µM, the TGI (HS 578T breast) was greater than 100 µM and the TGI (HT29 colon) was greater than 100 µM. The TGI (K-562 leukemia) was greater than 100 µM, the TGI (KM12 colon) was greater than 100 µM and the TGI (LOX IMVI melanoma) was greater than 100 µM. The TGI (M14 melanoma) was greater than 100 µM, the TGI (MALME-3M melanoma) was greater than 100 µM and the TGI (MCF7 breast) was greater than 100 µM. It also gave a TGI (MDA-MB-231 breast) greater than 100 µM, a TGI (MDA-MB-435) greater than 100 µM and a TGI (MDA-N) greater than 100 µM. The TGI (MOLT-4 leukemia) was greater than 100 µM, the TGI (NCI-H226 lung) was greater than 100 µM and the TGI (NCI-H23 lung) was greater than 100 µM. It also gave a TGI (NCI-H460 lung) greater than 100 µM, a TGI (NCI/ADR-RES ovarian) greater than 100 µM and a TGI (OVCAR-3 ovarian) greater than 100 µM. The TGI (OVCAR-4 ovarian) was greater than 100 µM, the TGI (OVCAR-5 ovarian) was greater than 100 µM and the TGI (OVCAR-8 ovarian) was greater than 100 µM. It also gave a TGI (PC-3 prostate) greater than 100 µM, a TGI (RPMI-8226 leukemia) greater than 100 µM and a TGI (RXF 393 renal) greater than 100 µM. The TGI (SF-268 CNS) was greater than 100 µM, the TGI (SF-295 CNS) was greater than 100 µM and the TGI (SF-539 CNS) was greater than 100 µM. The TGI (SK-MEL-2 melanoma) was greater than 100 µM, the TGI (SK-MEL-28 melanoma) was greater than 100 µM and the TGI (SK-MEL-5 melanoma) was greater than 100 µM. It also gave a TGI (SK-OV-3 ovarian) greater than 100 µM, a TGI (SN12C renal) greater than 100 µM and a TGI (SNB-19 CNS) greater than 100 µM. It also gave a TGI (SNB-75 CNS) greater than 100 µM, a TGI (SW-620 colon) greater than 100 µM and a TGI (TK-10 renal) greater than 100 µM. For the same compound, the TGI (U251 CNS) was greater than 100 µM, the TGI (UACC-257 melanoma) was greater than 100 µM and the TGI (UACC-62 melanoma) was greater than 100 µM. For the same compound, the TGI (UO-31 renal) was greater than 100 µM.
O=c1oc2ccc(Cl)cc2cc1-c1cn2ccsc2n1 showed a TGI (786-0 renal) greater than 100 µM, a TGI (A549 NSCLC) greater than 100 µM and a TGI (ACHN renal) greater than 100 µM. The TGI (BT-549 breast) was 70.3 µM, the TGI (CAKI-1 renal) was greater than 100 µM and the TGI (CCRF-CEM leukemia) was 78.3 µM. The TGI (COLO 205 colon) was 93.6 µM, the TGI (DU-145 prostate) was greater than 100 µM and the TGI (EKVX NSCLC) was greater than 100 µM. It also gave a TGI (HCC-2998 colon) greater than 100 µM, a TGI (HCT-116 colon) greater than 100 µM and a TGI (HCT-15 colon) greater than 100 µM. For the same compound, the TGI (HL-60(TB) leukemia) was 85.1 µM, the TGI (HOP-62 NSCLC) was greater than 100 µM and the TGI (HOP-92 NSCLC) was 64.3 µM. It also gave a TGI (HS 578T breast) greater than 100 µM, a TGI (HT29 colon) greater than 100 µM and a TGI (IGROV1 ovarian) greater than 100 µM. For the same compound, the TGI (K-562 leukemia) was greater than 100 µM, the TGI (KM12 colon) was greater than 100 µM and the TGI (LOX IMVI melanoma) was greater than 100 µM. The TGI (M14 melanoma) was greater than 100 µM, the TGI (MALME-3M melanoma) was greater than 100 µM and the TGI (MCF7 breast) was 65.4 µM. The TGI (MDA-MB-231 breast) was greater than 100 µM, the TGI (MDA-MB-435) was greater than 100 µM and the TGI (MDA-N) was greater than 100 µM. It also gave a TGI (MOLT-4 leukemia) greater than 100 µM, a TGI (NCI-H23 lung) greater than 100 µM and a TGI (NCI-H460 lung) greater than 100 µM. For the same compound, the TGI (NCI-H522 lung) was 47.9 µM, the TGI (NCI/ADR-RES ovarian) was greater than 100 µM and the TGI (OVCAR-3 ovarian) was greater than 100 µM. For the same compound, the TGI (OVCAR-4 ovarian) was greater than 100 µM, the TGI (OVCAR-8 ovarian) was 96.8 µM and the TGI (PC-3 prostate) was greater than 100 µM. It also gave a TGI (RPMI-8226 leukemia) greater than 100 µM, a TGI (RXF 393 renal) greater than 100 µM and a TGI (SF-268 CNS) greater than 100 µM. The TGI (SF-295 CNS) was greater than 100 µM, the TGI (SF-539 CNS) was greater than 100 µM and the TGI (SK-MEL-2 melanoma) was greater than 100 µM. It also gave a TGI (SK-MEL-28 melanoma) greater than 100 µM, a TGI (SK-MEL-5 melanoma) greater than 100 µM and a TGI (SK-OV-3 ovarian) greater than 100 µM. For the same compound, the TGI (SN12C renal) was greater than 100 µM, the TGI (SNB-19 CNS) was greater than 100 µM and the TGI (SNB-75 CNS) was greater than 100 µM. For the same compound, the TGI (SR leukemia) was greater than 100 µM, the TGI (SW-620 colon) was greater than 100 µM and the TGI (T-47D breast) was greater than 100 µM. It also gave a TGI (TK-10 renal) greater than 100 µM, a TGI (U251 CNS) greater than 100 µM and a TGI (UACC-257 melanoma) greater than 100 µM. It also gave a TGI (UACC-62 melanoma) greater than 100 µM and a TGI (UO-31 renal) greater than 100 µM.
Compound COC(=O)c1c(OC)cc2cc3c(c(O)c2c1C)C(=O)C1(O)C(=O)C=C(OC)C(OC(=O)CC(C)N)=C1C3=O (centres undefined) has a TGI (786-0 renal) greater than 100 µM, a TGI (A549 NSCLC) greater than 100 µM and a TGI (ACHN renal) greater than 100 µM. It also gave a TGI (BT-549 breast) greater than 100 µM, a TGI (CAKI-1 renal) greater than 100 µM and a TGI (CCRF-CEM leukemia) of 49.5 µM. The TGI (COLO 205 colon) was greater than 100 µM, the TGI (DU-145 prostate) was greater than 100 µM and the TGI (EKVX NSCLC) was 72.4 µM. For the same compound, the TGI (HCC-2998 colon) was 87.9 µM, the TGI (HCT-116 colon) was greater than 100 µM and the TGI (HCT-15 colon) was greater than 100 µM. For the same compound, the TGI (HL-60(TB) leukemia) was 50.8 µM, the TGI (HOP-62 NSCLC) was greater than 100 µM and the TGI (HOP-92 NSCLC) was greater than 100 µM. For the same compound, the TGI (HS 578T breast) was 96.6 µM, the TGI (HT29 colon) was 43.7 µM and the TGI (IGROV1 ovarian) was 69.1 µM. It also gave a TGI (KM12 colon) of 42.7 µM, a TGI (LOX IMVI melanoma) greater than 100 µM and a TGI (M14 melanoma) greater than 100 µM. For the same compound, the TGI (MCF7 breast) was 67.3 µM, the TGI (MDA-MB-231 breast) was 43.4 µM and the TGI (MDA-MB-435) was greater than 100 µM. For the same compound, the TGI (MDA-N) was greater than 100 µM, the TGI (MOLT-4 leukemia) was 76.3 µM and the TGI (NCI-H23 lung) was greater than 100 µM. The TGI (NCI-H460 lung) was greater than 100 µM, the TGI (NCI-H522 lung) was greater than 100 µM and the TGI (NCI/ADR-RES ovarian) was greater than 100 µM. It also gave a TGI (OVCAR-3 ovarian) greater than 100 µM, a TGI (OVCAR-4 ovarian) of 90.1 µM and a TGI (OVCAR-5 ovarian) greater than 100 µM. The TGI (OVCAR-8 ovarian) was 92.9 µM, the TGI (PC-3 prostate) was greater than 100 µM and the TGI (RPMI-8226 leukemia) was 39.7 µM. For the same compound, the TGI (SF-268 CNS) was greater than 100 µM, the TGI (SF-295 CNS) was greater than 100 µM and the TGI (SF-539 CNS) was greater than 100 µM. The TGI (SK-MEL-2 melanoma) was greater than 100 µM, the TGI (SK-MEL-28 melanoma) was greater than 100 µM and the TGI (SK-MEL-5 melanoma) was greater than 100 µM. It also gave a TGI (SN12C renal) greater than 100 µM, a TGI (SNB-19 CNS) greater than 100 µM and a TGI (SNB-75 CNS) of 18 µM. The TGI (SR leukemia) was 47.6 µM, the TGI (SW-620 colon) was greater than 100 µM and the TGI (T-47D breast) was greater than 100 µM. For the same compound, the TGI (TK-10 renal) was greater than 100 µM, the TGI (U251 CNS) was greater than 100 µM and the TGI (UACC-257 melanoma) was greater than 100 µM. It also gave a TGI (UACC-62 melanoma) greater than 100 µM and a TGI (UO-31 renal) greater than 100 µM.

Reference: PubChem BioAssay (NCI)
